Laboratory results as given in patent publication US20070093520A1, “Method of treatment of diarrhea-predominant irritable bowel syndrome in a subject” (priority 2005, published 2007).

Test system: diarrhea-predominant IBS subjects
Test: 3007 Study: open-label 52-week safety study, adverse events and withdrawals
Conditions: C/C group

Cc1nccn1C[C@H]1CCc2c(c3cccc4c3n2CCC4)C1=O [cilansetron, (R)-(−)-4,5,6,8,9,10-hexahydro-10-[(2-methyl-1H-imidazol-1-yl)methyl]-11H-pyrido-[3,2,1-jk]-carbazol-11-one]
3 (1%) n (%): TEAE: Angina Pectoris | TEAE: Anxiety | TEAE: Blood and Lymphatic System Disorders | TEAE: Bronchospasm and Obstruction | TEAE: Calculus Renal NOS | TEAE: Chest Pain | TEAE: Depression Aggravated | TEAE: Elevated Cholesterol | TEAE: Hypercholesterolaemia | TEAE: Influenza Like Illness
0 n (%): TEAE: Abdominal Therapeutic Procedures NEC | TEAE: Abdominoplasty | TEAE: Abnormal Chest Sounds NOS | TEAE: Acrochordons | TEAE: Age Related Issues | TEAE: Allergy to Insect Sting | TEAE: Alopecia | TEAE: Alopecias | TEAE: Anaemia NOS | TEAE: Anaemias NEC | TEAE: Apocrine and Eccrine Gland Disorders | TEAE: Behaviour and Socialisation Disturbances | TEAE: Benign Ovarian Tumour* | TEAE: Biliary Tract Disorder NOS | TEAE: Binocular Eye Movement Disorder NOS | TEAE: Bladder Disorders NEC | TEAE: Bladder Infections and Inflammations | TEAE: Bladder Prolapse | TEAE: Bradyarrhythmia | TEAE: Breast Calcifications* | TEAE: Breast Cancer NOS* | TEAE: Breast Disorder NOS* | TEAE: Breast and Nipple Neoplasms Malignant* | TEAE: Cardiac Fibrillation NOS | TEAE: Cardiac Flutter | TEAE: Chest Discomfort | TEAE: Congenital, Familial and Genetic Disorders | TEAE: Cystitis Interstitial | TEAE: Dermatitis Allergic | TEAE: Dermatitis Ascribed to Specific Agent | TEAE: Dermatitis Medicamentosa | TEAE: Dermatitis NOS | TEAE: Dermographism | TEAE: Dyshidrosis | TEAE: Fibroma NOS | TEAE: Fluid Intake Increased | TEAE: Food Allergy | TEAE: Gilbert's Syndrome | TEAE: Glucose Tolerance Impaired | TEAE: Glycosuria | TEAE: Hallucination NOS | TEAE: Hallucination, Auditory | TEAE: Hand Fracture | TEAE: Hernia NOS | TEAE: Hernias NEC | TEAE: Hyperglycaemia NOS | TEAE: Hyperglycaemic Conditions NEC | TEAE: Hyperkeratoses | TEAE: Hyperkeratosis | TEAE: Hypotension NOS | TEAE: Inborn Errors of Bilirubin Metabolism | TEAE: Ingrowing Nail | TEAE: Irritability
6 (2%) n (%): TEAE: Bladder and Urethral Symptoms | TEAE: Coughing and Associated Symptoms | TEAE: Disturbances in Initiating and Maintaining Sleep | TEAE: Ear and Labyrinth Disorders | TEAE: General Signs and Symptoms NEC
10 (4%) n (%): TEAE: Cardiac Disorders
23 (9%) n (%): TEAE: General Disorders and Administration Site Conditions
8 (3%) n (%): TEAE: Asthenic Conditions | TEAE: Eye Disorders
5 (2%) n (%): TEAE: Anxiety Symptoms | TEAE: Cough | TEAE: Immune System Disorders | TEAE: Insomnia
1 (<1%) n (%): TEAE: Acne NOS | TEAE: Acnes | TEAE: Acquired Hypothyroidism | TEAE: Adenomyosis* | TEAE: Allergic Conditions NEC | TEAE: Allergies to Foods, Food Additives, Drugs and Other Chemicals | TEAE: Amenorrhoea NOS* | TEAE: Anorexia | TEAE: Appetite Disorders | TEAE: Arrhythmia NOS | TEAE: Asthma Aggravated | TEAE: Asthma NOS | TEAE: Atrial Fibrillation | TEAE: Atrioventricular Block First Degree | TEAE: Bone Neoplasm Malignant | TEAE: Bone Neoplasms Malignant (Excl Sarcomas) | TEAE: Breast Disorders NEC* | TEAE: Breast Mass NOS* | TEAE: Breath Sounds Decreased | TEAE: Bruising, Ecchymosis and Purpura | TEAE: Bundle Branch Block Right | TEAE: Calculus Ureteric | TEAE: Cataract Unilateral | TEAE: Cataracts (Excl Congenital) | TEAE: Chest Tightness | TEAE: Conjunctivitis | TEAE: Conjunctivitis Allergic | TEAE: Contusion | TEAE: Cyst NOS | TEAE: Dacryostenosis Acquired | TEAE: Deafness NOS | TEAE: Dehydration | TEAE: Dermal and Epidermal Conditions NEC | TEAE: Dermatitis Contact | TEAE: Diabetes Mellitus Aggravated | TEAE: Diabetes Mellitus Non-Insulin-Dependent | TEAE: Drug Hypersensitivity | TEAE: Dysfunctional Uterine Bleeding* | TEAE: Dysuria | TEAE: Ear Disorders NEC | TEAE: Ear Pain | TEAE: Eczema | TEAE: Erythema | TEAE: Erythemas | TEAE: Fatigue Aggravated | TEAE: Fluid in Middle Ear | TEAE: Flushing | TEAE: Goitre | TEAE: Haematoma NOS | TEAE: Hearing Losses | TEAE: Hepatitis NOS | TEAE: Hepatobiliary Signs and Symptoms | TEAE: Hepatocellular Damage and Hepatitis NEC | TEAE: Hepatosplenomegaly NOS | TEAE: Hernia Repair NOS | TEAE: Hernia Repairs | TEAE: Hot Flushes NOS | TEAE: Hyperlipidaemia NOS | TEAE: Hyperlipidaemias NEC | TEAE: Hypersensitivity NOS | TEAE: Hypertension Aggravated | TEAE: Inner Ear Disorders NEC | TEAE: Inner Ear Signs and Symptoms | TEAE: Insomnia Exacerbated | TEAE: Intermenstrual Bleeding*
7 (3%) n (%): TEAE: Depressive Disorders | TEAE: Fatigue | TEAE: Hypertension NOS
4 (2%) n (%): TEAE: Atopic Disorders | TEAE: Depression | TEAE: Haematuria | TEAE: Hepatobiliary Disorders | TEAE: Ischaemic Coronary Artery Disorders
2 (1%) n (%): TEAE: Endometriosis*
2 (<1%) n (%): TEAE: Anxiety Aggravated | TEAE: Basal Cell Carcinoma | TEAE: Breathing Abnormalities | TEAE: Cardiac Conduction Disorders | TEAE: Cardiac Signs and Symptoms NEC | TEAE: Cerumen Impaction | TEAE: Cholecystitis and Cholelithiasis | TEAE: Cholelithiasis | TEAE: Conjunctival Infections, Irritations and Inflammations | TEAE: Dermatitis and Eczema | TEAE: Diabetes Mellitus (Incl Subtypes) | TEAE: Dry Eye NOS | TEAE: Dyspnoea NOS | TEAE: Endocrine Disorders | TEAE: External Ear Disorders NEC | TEAE: Fall | TEAE: Febrile Disorders | TEAE: Gout | TEAE: Inner Ear Infections and Inflammations
